The target in assay [1] is ternary complex comprising RAS and CypA; KRAS^G12V (Homo sapiens, UniProt P01116+P62937, G12V). Nature of the assay: Ternary complex binding assay (BLI), KRAS G12V. Conditions: GMPPNP-loaded KRAS^G12V, fixed concentration of CypA, pH 7.4, read-out: KD2 (ternary complex equilibrium dissociation constant). As for the experimental part: (§1) To evaluate the ability of the test compounds to induce the formation of a ternary complex comprising RAS and CypA, we employed a Bio-layer Interferometry (BLI) method (Octet R8) to monitor the binding kinetics among the compounds, RAS, and CypA, and to calculate the affinity of the ternary complex. GMPPNP was first incubated with RAS protein to load GMPPNP onto RAS. His-tagged RAS proteins with different mutations were then immobilized on NTA sensors, followed by baseline equilibration for 120 seconds in the assay buffer (20 mM HEPES, pH 7.4, 150 mM NaCl, 5 mM MgCl2, 1 mM TCEP, 5 μM GMPPNP, 0.01% Tween 20). The sensors were subsequently exposed to buffer containing various concentrations of the compounds and a fixed concentration of CypA, and the association phase of ternary complex formation was monitored in real time. Once binding reached a plateau, the sensors were transferred to compound- and CypA-free buffer to measure the dissociation phase. To ensure accuracy, DMSO normalization was performed, buffer composition was optimized to reduce non-specific binding, and both negative and positive controls were employed to verify assay specificity. Data were processed using Octet Analysis Studio 13.0, analyzed using a 1:1 binding model, and the association rate constant (ka), dissociation rate constant (kdis), and equilibrium dissociation constant (KD2) were calculated.

The subject of assay [2] is H358. Nature of the assay: In vitro cell proliferation inhibition assay (CellTiter-Glo), H358. Conditions: H358, KRAS (p.G12C), 72 h; read-out: IC50, antiproliferative activity. Format: cell-based. As for the experimental part: (§2) Due to the diversity of RAS mutations, and in order to evaluate the activity of the compounds in different RAS mutant cell lines, we selected cell lines with KRAS^G12D, KRAS^G12V, KRAS^G12c, NRAS^q61L, KRAS^G13D, KRAS^G12R, and KRAS^WT mutations (see the table below for in vitro activity evaluation and screening of the compounds.
(§3) According to the doubling time of different cell lines, different numbers of cells (1000-5000 cells/well) were seeded into 96-well plates containing 180 μL of the corresponding culture medium, and incubated overnight in a cell incubator at 37 °C with 5% C02. On the following day, the test compounds were pre-diluted in the culture medium in a 3-fold serial dilution series, with the highest concentration being […], resulting in 10 concentration gradients in total. Subsequently, 20 μL of culture medium containing the compounds at different concentrations was added to the cells in the 96-well plates, ensuring a final compound concentration of up to 10 μM, with 10 concentrations in 3-fold dilution. After co-incubation of the cells with the compounds for 72 h, the 96-well plates were removed from the incubator and equilibrated at room temperature for 30 min. Then, 25 μL of CellTiter-Glo® Reagent was added to each well and mixed thoroughly, followed by incubation at room temperature for 10 min. Subsequently, 100 μL of the samples was transferred to white 96-well plates (OptiPlate™-96, PerkinElmer), and […] signal values were read using a multifunctional microplate reader (SpectraMax i3x, Molecular Devices). The signal values were then normalized, and curve fitting was performed using a four-parameter logistic regression equation to calculate the half maximal inhibitory concentration (IC50) of the compounds against the cell lines.
(In general: Cellular ATP, detected with luciferase, serves as a proxy for viable cell number.)

The test system of assay [3] is HepG2. Nature of the assay: In vitro cell proliferation inhibition assay (CellTiter-Glo), HepG2. Format: cell-based. Conditions: HepG2, NRAS (p.Q61L), 72 h; read-out: IC50, antiproliferative activity. How it is done:
as §2, §3

Assay [4] relates to MV411. Briefly: In vitro cell proliferation inhibition assay (CellTiter-Glo), MV411. The class given is cell-based. Conditions: MV411, KRAS wild type, 72 h; read-out: IC50, antiproliferative activity. As for the experimental part: as §3
Assay [5] relates to AsPC-1. Briefly: In vitro cell proliferation inhibition assay (CellTiter-Glo), AsPC-1. Format: cell-based. Conditions: AsPC-1, KRAS (p.G12D), 72 h; read-out: IC50, antiproliferative activity. As for the experimental part: as §2, §3
The test system of assay [6] is PSN1. Briefly: In vitro cell proliferation inhibition assay (CellTiter-Glo), PSN1. The class given is cell-based. Conditions: PSN1, KRAS (p.G12R), 72 h; read-out: IC50, antiproliferative activity. As for the experimental part:
as §2, §3

In assay [7] the test system is HCT116. Nature of the assay: In vitro cell proliferation inhibition assay (CellTiter-Glo), HCT116. The class given is cell-based. Conditions: HCT116, KRAS (p.G13D), 72 h; read-out: IC50, antiproliferative activity. As for the experimental part: as §2, §3
The target of assay [8] is ternary complex comprising RAS and CypA; KRAS^WT (Homo sapiens, UniProt P01116+P62937). Nature of the assay: Ternary complex binding assay (BLI), KRAS WT. Conditions: GMPPNP-loaded KRAS^WT, fixed concentration of CypA, pH 7.4, read-out: KD2 (ternary complex equilibrium dissociation constant). How it is done:
as §1

The target in assay [9] is ternary complex comprising RAS and CypA; KRAS^G12D (Homo sapiens, UniProt P01116+P62937, G12D). Briefly: Ternary complex binding assay (BLI), KRAS G12D. Conditions: GMPPNP-loaded KRAS^G12D, fixed concentration of CypA, pH 7.4, read-out: KD2 (ternary complex equilibrium dissociation constant). How it is done: as §1
Assay [10] relates to SW480. Briefly: In vitro cell proliferation inhibition assay (CellTiter-Glo), SW480. Format: cell-based. Conditions: SW480, KRAS (p.G12V), 72 h; read-out: IC50, antiproliferative activity. How it is done: as §2, §3
For assay [11], the target named is T1, cyclophilin A (CypA) (Homo sapiens, UniProt P62937).
T1 construct: purchased R&D 3589-CAB
Nature of the assay: Binary complex binding assay (BLI). Conditions: His-tagged CypA, pH 7.4, 1:1 binding model; for Kd: read-out: KD1 (binary complex equilibrium dissociation constant); for kon: read-out: ka (association rate constant); for koff: read-out: kdis (dissociation rate constant). As for the experimental part:
To evaluate the binding ability of the test compounds to cyclophilin A (CypA), we employed a Bio-layer Interferometry (BLI) method (Octet R8) to monitor the binding kinetics between the compounds and CypA, and to calculate the affinity of the binary complex. His-tagged CypA protein (3589-CAB, R&D) was first immobilized on an NTA sensor, followed by baseline equilibration for 120 seconds in the assay buffer (20 mM HEPES, pH 7.4, 150 mM NaCl, 5 mM MgCl2, 1 mM TCEP, 0.01% Tween 20). The sensor was then exposed to buffer solutions containing different concentrations of the compounds to monitor the association process in real time. When the high-concentration compound binding reached a plateau, the sensor was transferred to compound-free buffer to measure the dissociation process. To ensure data accuracy, DMSO normalization was performed, non-specific binding was minimized by buffer optimization, and negative and positive controls were set to verify assay specificity. Data were processed using Octet Analysis Studio 13.0, analyzed using a 1:1 binding model, and the association rate constant (ka), dissociation rate constant (kdis), and equilibrium dissociation constant (KD1) were calculated.

These results are taken from US20260355191A1, “PAN-RAS INHIBITOR COMPOUND” (ADLAI NORTYE BIOPHARMA CO., LTD., priority 2024, published 2026).

The IC50 is the concentration needed to halve the response being measured.

Sequence of ternary complex comprising RAS and CypA; KRAS^WT (P01116 1-188 isoform P01116-2): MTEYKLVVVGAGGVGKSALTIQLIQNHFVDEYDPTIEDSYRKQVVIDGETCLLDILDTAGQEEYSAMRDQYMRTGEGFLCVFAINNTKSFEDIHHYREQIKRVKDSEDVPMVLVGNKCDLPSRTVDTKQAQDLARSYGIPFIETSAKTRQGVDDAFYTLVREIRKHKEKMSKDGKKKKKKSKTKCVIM
Sequence of ternary complex comprising RAS and CypA; KRAS^WT (P62937 whole entry): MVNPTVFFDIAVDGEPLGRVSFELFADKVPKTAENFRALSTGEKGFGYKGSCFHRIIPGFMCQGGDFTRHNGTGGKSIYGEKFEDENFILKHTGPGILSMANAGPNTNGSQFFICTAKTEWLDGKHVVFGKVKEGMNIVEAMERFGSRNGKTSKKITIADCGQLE
Sequence of ternary complex comprising RAS and CypA; KRAS^G12V (P01116 1-188 isoform P01116-2 G12V): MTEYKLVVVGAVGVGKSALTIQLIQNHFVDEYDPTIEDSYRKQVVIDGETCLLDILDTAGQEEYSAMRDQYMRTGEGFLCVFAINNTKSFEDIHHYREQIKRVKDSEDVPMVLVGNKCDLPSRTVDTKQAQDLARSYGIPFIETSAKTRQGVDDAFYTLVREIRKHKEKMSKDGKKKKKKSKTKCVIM
Sequence of ternary complex comprising RAS and CypA; KRAS^G12V (P62937 whole entry): as the sequence (P62937 whole entry) above
T1 sequence (P62937 whole entry): as above
Sequence of ternary complex comprising RAS and CypA; KRAS^G12D (P01116 1-188 isoform P01116-2 G12D): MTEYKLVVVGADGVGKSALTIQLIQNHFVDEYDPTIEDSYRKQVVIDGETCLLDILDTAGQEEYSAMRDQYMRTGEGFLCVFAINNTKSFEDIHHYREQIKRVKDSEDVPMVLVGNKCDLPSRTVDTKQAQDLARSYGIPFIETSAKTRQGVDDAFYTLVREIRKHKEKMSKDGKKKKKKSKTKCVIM
Sequence of ternary complex comprising RAS and CypA; KRAS^G12D (P62937 whole entry): as the sequence (P62937 whole entry) above

For `CCn1c(-c2cc(-c3nc(C4CCN(C5COC5)CC4)n(C)n3)cnc2[C@H](C)OC)c2c3cc(ccc31)-c1csc(n1)C[C@H](NC(=O)[C@H]1[C@H](C)[C@@H]1C)C(=O)N1CCC[C@H](N1)C(=O)OCC(C)(C)C2` (atropisomer, axis not shown) [Compound 4, (1r,2R,3S)—N-((6^3S,4S,Z)-1^1-ethyl-1^2-(2-((S)-1-methoxyethyl)-5-(1-methyl-5-(1-(oxetan-3-yl)piperidin-4-yl)-1H-1,2,4-triazol-3-yl)pyridin-3-yl)-10,10-dimethyl-5,7-dioxo-6^1,6^2,6^3,6^4,6^5,6^6-hexahydro-1^1H-8-oxa-2(4,2)-thiazola-1(5,3)-indola-6(1,3)-pyridazinacycloundecaphane-4-yl)-2,3-dimethylcyclopropane-1-carboxamide], the Kd in [1] is 25 nM; in [8], 27 nM; in assay [9], 43 nM; in assay [11], 0.81 nM. The IC50 amounted to 0.001 nM in assay [2]; 0.06 nM in assay [3]; 0.35 nM in assay [4]; 0.21 nM in assay [5]; 0.07 nM in assay [6]; 2.8 nM in assay [7]. For the same compound, the IC50 in [10] turned out to be 0.52 nM. Besides, in [11], the kon is 150000 M⁻¹ s⁻¹. For the same compound, in [11], the koff turned out to be 0.00012 s⁻¹.

On to `CO[C@@H](C)c1ncc(-c2nnc(C3CCN(C4COC4)CC3)o2)cc1-c1c2c3cc(ccc3n1CC(F)(F)F)-c1csc(n1)C[C@H](NC(=O)[C@H]1C[C@@H]1C)C(=O)N1CCC[C@H](N1)C(=O)OCC(C)(C)C2` (atropisomer, axis not shown) [Compound 5, (1S,2S)—N-((6^3S,4S,Z)-1^2-(2-((S)-1-methoxyethyl)-5-(5-(1-(oxetan-3-yl)piperidin-4-yl)-1,3,4-oxadiazol-2-yl)pyridin-3-yl)-10,10-dimethyl-5,7-dioxo-1^1-(2,2,2-trifluoroethyl)-6^1,6^2,6^3,6^4,6^5,6^6-hexahydro-1^1H-8-oxa-2(4,2)-thiazola-1(5,3)-indola-6(1,3)-pyridazinacycloundecaphane-4-yl)-2-methylcyclopropane-1-carboxamide], for which the Kd is 27 nM in assay [1], 17 nM in assay [8], 27 nM in assay [9] and 8.6 nM in assay [11]. In addition, the IC50 was found to be 0.034 nM in assay [2]; 0.66 nM in assay [3]; 0.66 nM in [4]; 0.08 nM in assay [5]; 0.03 nM in [6]; 0.02 nM in [7]. In assay [10], the concentration for half-maximal inhibition (IC50) was 0.11 nM. For the same compound, in [11], the kon was 200000 M⁻¹ s⁻¹. In addition, in assay [11], the koff amounted to 0.0017 s⁻¹.

On to `CCn1c(-c2cc(-c3nnc(C4CCN(C5CN(C(C)C)C5)CC4)o3)cnc2[C@H](C)OC)c2c3cc(ccc31)-c1csc(n1)C[C@H](NC(=O)[C@H]1C[C@@H]1C)C(=O)N1CCC[C@H](N1)C(=O)OCC(C)(C)C2` (atropisomer, axis not shown) [Compound 7, (1S,2S)—N-((6^3S,4S,Z)-1^1-ethyl-1^2-(5-(5-(1-(1-isopropylazetidin-3-yl)piperidin-4-yl)-1,3,4-oxadiazol-2-yl)-2-((S)-1-methoxyethyl)pyridin-3-yl)-10,10-dimethyl-5,7-dioxo-6^1,6^2,6^3,6^4,6^5,6^6-hexahydro-1^1H-8-oxa-2(4,2)-thiazola-1(5,3)-indola-6(1,3)-pyridazinacycloundecaphane-4-yl)-2-methylcyclopropane-1-carboxamide], for which the IC50 in [2] was 0.004 nM; in assay [3] it was 0.05 nM; in assay [4], 0.49 nM; in assay [5] it was 0.03 nM; in assay [6], 0.05 nM; in [7] it was 0.7 nM. The IC50 in [10] worked out at 0.14 nM. Also, the values for the Kd in assay [9] and in [11] were 19 nM and 16 nM, respectively. Besides, the kon in assay [11] was 230000 M⁻¹ s⁻¹. In addition, the koff in assay [11] worked out at 0.0037 s⁻¹.

With `CO[C@@H](C)c1ncc(-c2nnc(C3CCN(C4CN(C(C)C)C4)CC3)o2)cc1-c1c2c3cc(ccc3n1CC(F)(F)F)-c1csc(n1)C[C@H](NC(=O)[C@H]1[C@H](C)[C@@H]1C)C(=O)N1CCC[C@H](N1)C(=O)OCC(C)(C)C2` (atropisomer, axis not shown) [Compound 10, (1r,2R,3S)—N-((6^3S,4S,Z)-1^2-(5-(5-(1-(1-isopropylazetidin-3-yl)piperidin-4-yl)-1,3,4-oxadiazol-2-yl)-2-((S)-1-methoxyethyl)pyridin-3-yl)-10,10-dimethyl-5,7-dioxo-1^1-(2,2,2-trifluoroethyl)-6^1,6^2,6^3,6^4,6^5,6^6-hexahydro-1^1H-8-oxa-2(4,2)-thiazola-1(5,3)-indola-6(1,3)-pyridazinacycloundecaphane-4-yl)-2,3-dimethylcyclopropane-1-carboxamide], the Kd in assay [1] is 12 nM; in [8], 9.3 nM; in assay [9], 17 nM; in assay [11], 2.7 nM. Moreover, the half-inhibitory concentration (IC50) in assay [2] was determined as 0.021 nM; in assay [3] it was 0.1 nM; in assay [4], 0.42 nM; in assay [5] it was 0.005 nM; in assay [6], 0.07 nM; in [7] it was 0.14 nM. Moreover, the IC50 in assay [10] came out at 0.01 nM. Also, the “ka (association rate constant)” value in [11] is 2.1E+05 1/[M*s]. Further, the koff in assay [11] worked out at 0.00057 s⁻¹.
